Experimental data: US7723326B2, “Heterocyclic amide derivatives as RXR agonists for the treatment of dyslipidemia, hypercholesterolemia and diabetes” (Janssen Pharmaceutica N.V., priority 2005, dated 2010)

Columns and labels:
[1] = system: ABCA1 mRNA in THP-1 cells; test: ABCA1 bDNA assay (ABCA1 mRNA induction); assay type: cell-based; conditions: Homo sapiens; for Emax at 3 µM: relative to MX-6054, read-out: ABCA1 % max MX-6054; for EC50: ABCA1 mRNA induction, usually 18-24 hrs
Protocol: THP-1 cells, a human monocytic cell line, were obtained from ATCC and maintained in RPMI (Gibco) supplemented with 10% fetal bovine serum (Gibco), 2mM L-glutamine and 1% antibiotic-antimycotic in 5% CO2 at 37° C. For ABCA1 mRNA induction assays, the cells were pelleted and resuspended in RPMI supplemented with 0.5% charcoal treated serum (Hyclone), 2 mM glutamine and 1% antibiotic-antimycotic. The cells were plated at a density of 40,000 cells/90 μl and incubated as above for at least 4 hours before the initiation of treatments. Compounds were prepared as 10 mM stocks in DMSO. For treatments, the compounds were diluted in medium and 10 μl of 10× stocks were added to the cells at a final concentration 0.1% DMSO. The cells were incubated for the desired amount of time (usually 18-24 hrs) and then lyzed with 50 μl of Quantigene HV bDNA lysis buffer which also contained the ABCA1 bDNA probes (probe sequences shown below): […]

[2] = target: T1, RXR ligand binding domain (accession number X52773) fused with the DNA binding domain of yeast GAL4 (Homo sapiens, UniProt P19793); test: RXR co-transfection assay (GAL4-LBD luciferase reporter in HEK293 cells); assay type: cell-based; conditions: 16-18 hours
T1 construct: expressed in transfected cells; host or cells: HEK293
T1 sequence (P19793 227-458 limits assumed): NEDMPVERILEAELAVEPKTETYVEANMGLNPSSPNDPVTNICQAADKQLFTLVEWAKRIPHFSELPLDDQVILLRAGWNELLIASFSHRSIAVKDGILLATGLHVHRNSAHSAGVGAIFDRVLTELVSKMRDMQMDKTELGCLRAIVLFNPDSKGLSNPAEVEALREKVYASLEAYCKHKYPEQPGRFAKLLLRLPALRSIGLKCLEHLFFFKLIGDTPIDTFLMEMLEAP
Protocol: The nucleic acid sequence from 676-1464bp (accession number X52773) encoding the ligand binding domains was subcloned into the pM vector (BD Biosciences Clontech, Palo Alto, Calif.) and were fused with the DNA binding domain of yeast GAL4. HEK293 cells were cultured in DMEM/F12 medium supplemented with 10% FBS and 1% 1-glutamine (growth medium). Cells were seeded at a density of 5-10×10^6 cells in 50 ml of growth medium and left overnight, The medium was removed and the cells were washed with 15 ml of OptiMEM serum free medium (Invitrogen Corp). The cells were transfected using OptiMEM serum free medium and DMRIE transfection reagent (Invitrogen Corp). Approximately 10-30 ng of DNA for the different receptors and 5-10 ng of the luciferase reporter (1:1 ratio for RAR and 4:1 ratio for RXR of receptor DNA:reporter DNA) were gently mixed with 51 μl of DMRIE reagent in a total volume of 17 ml of OptiMEM medium. Eighteen hours after transfection, the cells were washed once with growth medium and then incubated for 6 hrs in 30 ml of growth medium. The cells were then trypsinized, and reseeded at a density of 50,000 per well in 96 well plates and left overnight. The medium was replaced with 90 μl of medium containing DMEM/F12 supplemented with 0.5% charcoal-treated FBS (HyClone; Logan, Utah) and 1% glutamine. Compounds or vehicle were added in 10 μl of 10× concentration of compound or vehicle (0.1% dimethyl sulfoxide). The cells were treated for 16-18 hours, lysed and assayed for luciferase activity using the Steady Gio luciferase assay kit (Promega, Madison, Wis.).

Row | SMILES | Emax at 3 µM [1] | EC50 [1] | EC50 [2]
1 | CCN1C(=O)C(C)(C)Oc2cc(C)c(-c3cc(/C(C)=C/C(=O)O)ccc3OC(F)(F)F)cc21 [Compound 11, 3-[3-(4-Ethyl-2,2,7-trimethyl-3-oxo-3,4-dihydro-2H-benzo[1,4]oxazin-6-yl)-4-trifluoromethoxy-phenyl]-but-2-enoic acid] | 75.5% | > 2000 nM | 61.2 nM
2 | CCN1C(=O)C(C)(C)Oc2cc(C)c(-c3cc(CCC(=O)O)ccc3OC(F)(F)F)cc21 [Compound 12, 3-[3-(4-Ethyl-2,2,7-trimethyl-3-oxo-3,4-dihydro-2H-benzo[1,4]oxazin-6-yl)-4-trifluoromethoxy-phenyl]-propionic acid] | – | > 2000 nM | 709 nM
3 | Cc1cc2c(cc1-c1cc(CCC(=O)O)ccc1OC(F)(F)F)N(C(C)C)C(=O)C(C)(C)O2 [Compound 13, 3-[3-(4-Isopropyl-2,2,7-trimethyl-3-oxo-3,4-dihydro-2H-benzo[1,4]oxazin-6-yl)-4-trifluoromethoxy-phenyl]-propionic acid] | – | > 2000 nM | 347 nM
4 | CCN1C(=O)OC(C(C)C)c2cc(C)c(-c3cc(CCC(=O)O)ccc3OC(F)(F)F)cc21 (stereo not shown) [Compound 18, 3-[3-(1-Ethyl-4-isopropyl-6-methyl-2-oxo-1,4-dihydro-2H-benzo[d][1,3]oxazin-7-yl)-4-trifluoromethoxy-phenyl]-propionic acid] | 4.5% | > 2000 nM | > 2000 nM
